Data published in patent US8933122B2, “Use of cationic surfactants as sporicidal agents” (Laboratorios Miret, S.A., priority 2008, dated 2015).

Legend:
[1] = system: Aspergillus niger fungical spores; experiment: Fungicide activity, UNE-EN 1275 (Example 2); format: cell-based; details: 20° C.; for Test of LAE fungicide activity (Na), surviving spores count: N 5 × 10^7 cfu/mL
From the text: The determination of the fungicide activity of LAE has been carried out according to the European standard UNE-EN 1275: “Chemical disinfectant and antiseptic. Fungicide activity. Test method and requirements”.
The fungicide activity of a given product is defined by its capacity to reduce at least by 10^4 the amount of Aspergillus niger fungical spores in suspension, in the conditions established in the method.
The product is in contact with a suspension of fungical spores during an established period of time (60 minutes). After this time, the effect of the product is neutralized by adding Polysorbate 80 in water solution at 2%, preceding to the surviving spores count.
• 1. Spore suspension obtained from a spored-form culture of Aspergillus niger. • 2. Count of the spore suspension of Aspergillus niger. • 3. The possible toxic effect of the neutralizer on the spores in the absence of the product is valued. • 4. Evaluation of the neutralizing effect of the neutralizer over the product. • 5. Evaluation of the fungicide effect of the product. • 6. Result calculation. Results:
Tabulation of the Method and Test Validation Results (at 20° C.):
Fungicide activity is calculated as follows: R=N×0.1/Na N cfu/mL of the fungical spore suspension Na cfu/mL of the fungicide activity The calculated reduction of a solution of: • 100 μg/mL of LAE is R=3.1×10^2 cfu/mL • 200 μg/mL of LAE is R=1.3×10^3 cfu/mL • 300 μg/mL of LAE is R=1.4×10^3 cfu/mL • 400 μg/mL of LAE is R=1.7×10^3 cfu/mL • 500 μg/mL of LAE is R>10^4 cfu/mL
A product is considered fungicide if its use results in a reduction in the number of Aspergillus niger fungical spores equal to or above 10^4 after being in contact for 60 minutes in the conditions set in UNE-EN 1275.

[2] = system: endospores from Geobacillus stearothermophilus ATCC 12980; experiment: Sporicidal activity, quantitative suspension test EN 13704:2002 (Example 3); format: cell-based; details: 40° C.; for calculated reduction (R) R=N×0.1/Na: 60 minutes; for Test of LAE sporicidal activity (Na), surviving spores count: water as interfering substance, N 1.3 × 10^6 cfu/mL
Experimental: The determination of the sporicidal activity of LAE has been carried out according to the European standard EN 13704:2002: “Chemical disinfectant—Quantitative suspension test for the evaluation of sporicidal activity of chemical disinfectants used in food, industrial, domestic and institutional areas—Test method and requirements”.
A test suspension containing endospores from Geobacillus stearothermophilus ATCC 12980 was prepared from a culture grown on a nutrient agar, to which additional sporulation enhancement ingredients were added. Plates were harvested with sterile water and endospores were purified by repeated centrifugations and resuspensions in water.
Neutralizer. The neutralizer mixture consisted of 30 g/L polysorbate 80 in water. The solution was intended to neutralize any chemicals so that these would not affect subsequent growth of the bacteria.
The sporicidal activity of a given product is defined by its capacity to reduce at least by 10^3 the amount of Geobacillus stearothermophilus bacterial spores in suspension, in the conditions established in the method.
The product was in contact with a suspension of bacterial spores during an established period of time of 60 minutes. An interfering substance can be added to the suspension, in this case water. Next, the effect of the product is neutralized by adding a neutralizer previously chosen, preceding to the surviving spores count.
• 1. Spore suspension obtained from a spored-form culture of Geobacillus stearothermophilus • 2. Count of the spore suspension of Geobacillus stearothermophilus. • 3. The possible toxic effect of the neutralizer on the spores in the absence of the product is valued. • 4. Validation of the dilution-neutralisation method. • 5. Evaluation of the inhibitory sporicide effect of the product. • 6. Result calculation. Results: Results are expressed as the reduction of viability of the spore suspension in regards to:
Tabulation of the Method and Test Validation Results (at 40° C.): […]

[3] = system: Bacillus cereus var mycoide ATCC 11778; details: Gram + Bacteria; cited from earlier work
[4] = system: Bacillus subtilis ATCC 6633; details: Gram + Bacteria; cited from earlier work
[5] = system: Clostridium perfringens ATCC 77454; details: Gram + Bacteria; cited from earlier work
[6] = system: Listeria monocytogenes ATCC 7644; details: Gram + Bacteria; cited from earlier work
[7] = system: Micrococcus luteus ATCC 9631; details: Gram + Bacteria; cited from earlier work
[8] = system: Lactobacillus delbrueckii ssp lactis CECT 372; details: Gram + Bacteria; cited from earlier work
[9] = system: Leuconostoc mesenteroides CETC 912; details: Gram + Bacteria; cited from earlier work
[10] = system: Alcaligenes faecalis ATCC 8750; details: Gram − Bacteria; cited from earlier work
[11] = system: Escherichia coli ATCC 8739; details: Gram − Bacteria; cited from earlier work
Escherichia coli 0157H7 = details: Gram − Bacteria; cited from earlier work
[12] = system: Proteus mirabilis CECT 170; details: Gram − Bacteria; cited from earlier work
[13] = system: Serratia marcenses CECT 274; details: Gram − Bacteria; cited from earlier work
[14] = system: Mycobacterium phlei ATCC 41423; details: listed under Gram − Bacteria; cited from earlier work
[15] = system: Aspergillus niger ATCC 14604; details: Fungi; cited from earlier work
[16] = system: Gliocadium virens ATCC 4645; details: Fungi; cited from earlier work
[17] = system: Candida albicans ATCC 10231; details: Yeast; cited from earlier work

In the case of `CCCCCCCCCCCC(=O)N[C@@H](CCCN=C(N)N)C(=O)OCC.Cl` [LAE, ethyl ester of the lauramide of the arginine monohydrochloride], the “calculated reduction R=N×0.1/Na” value ([1]; 100 μg/mL of LAE, 60 minutes) is reported as 3.1×10^2 cfu/mL, the “calculated reduction R=N×0.1/Na” value ([1]; 200 μg/mL of LAE, 60 minutes) is reported as 1.3×10^3 cfu/mL and the “calculated reduction R=N×0.1/Na” value ([1]; 300 μg/mL of LAE, 60 minutes) is reported as 1.4×10^3 cfu/mL. The “calculated reduction R=N×0.1/Na” value ([1]; 400 μg/mL of LAE, 60 minutes) was 1.7×10^3 cfu/mL, the “calculated reduction R=N×0.1/Na” value ([1]; 500 μg/mL of LAE, 60 minutes) was > 10^4 cfu/mL and the “concentration at which fungicide active (reduction equal to or above 10^4)” value ([1]; 60 minutes contact, UNE-EN 1275) was no less than 500 ppm. For the same molecule, the “concentration from which a total inhibition of fungical spore germination has been observed” value ([1]; 60 minutes) was no less than 500 ppm, the “concentration from which there is inhibition of fungical spore germination” value ([1]; 60 minutes) was no less than 100 ppm and the “Test of LAE fungicide activity (Na), surviving spores count” value (from here on “Test of LAE fungicide activity (Na)”) ([1]; LAE 12.5 μg/mL, 60 minutes contact) was greater than 300 cfu/mL. The “Test of LAE fungicide activity (Na)” value ([1]; LAE 25 μg/mL, 60 minutes contact) was greater than 300 cfu/mL, the “Test of LAE fungicide activity (Na)” value ([1]; LAE 50 μg/mL, 60 minutes contact) was greater than 300 cfu/mL and the “Test of LAE fungicide activity (Na)” value ([1]; LAE 100 μg/mL, 60 minutes contact) was 1.6 × 10^4 cfu/mL. For the same molecule, the “Test of LAE fungicide activity (Na)” value ([1]; LAE 200 μg/mL, 60 minutes contact) was 3.9 × 10^3 cfu/mL, the “Test of LAE fungicide activity (Na)” value ([1]; LAE 300 μg/mL, 60 minutes contact) was 3.5 × 10^3 cfu/mL and the “Test of LAE fungicide activity (Na)” value ([1]; LAE 400 μg/mL, 60 minutes contact) was 3.0 × 10^3 cfu/mL. The “Test of LAE fungicide activity (Na)” value ([1]; LAE 500 μg/mL, 60 minutes contact) was “No”, the “Test of LAE fungicide activity (Na)” value ([1]; LAE 1000 μg/mL, 60 minutes contact) was “No” and the “calculated reduction (R) R=N×0.1/Na” value ([2]; 58 μg/ml of LAE) was < 10^3 cfu/mL. For the same molecule, the “calculated reduction (R) R=N×0.1/Na” value ([2]; 115 μg/ml of LAE) was < 10^3 cfu/mL, the “calculated reduction (R) R=N×0.1/Na” value ([2]; 173 μg/ml of LAE) was > 10^3 cfu/mL and the “calculated reduction (R) R=N×0.1/Na” value ([2]; 230 μg/ml of LAE) was > 10^3 cfu/mL. For the same molecule, the “calculated reduction (R) R=N×0.1/Na” value ([2]; 460 μg/ml of LAE) was > 10^3 cfu/mL, the “concentration displaying sporicidal activity (reduction equal to or above 10^3)” value ([2]; 60 minutes contact, EN 13704:2002) was no less than 173 μg/ml and the “Test of LAE sporicidal activity (Na), surviving spores count” value (from here on “Test of LAE sporicidal activity (Na)”) ([2]; LAE 58 μg/mL, 60 minutes contact) was 1.0 × 10^5 cfu/mL. For the same molecule, the “Test of LAE sporicidal activity (Na)” value ([2]; LAE 115 μg/mL, 60 minutes contact) was 5.2 × 10^4 cfu/mL, the “Test of LAE sporicidal activity (Na)” value ([2]; LAE 173 μg/mL, 60 minutes contact) was <10^2 cfu/mL and the “Test of LAE sporicidal activity (Na)” value ([2]; LAE 230 μg/mL, 60 minutes contact) was <10^2 cfu/mL. For the same molecule, the “Test of LAE sporicidal activity (Na)” value ([2]; LAE 460 μg/mL, 60 minutes contact) was <10^2 cfu/mL, the M.I.C. [3] was 32 ppm and the M.I.C. [4] was 16 ppm. The M.I.C. [5] was 16 ppm, the M.I.C. [6] was 10 ppm and the M.I.C. [7] was 128 ppm. For the same molecule, the M.I.C. [8] was 16 ppm, the M.I.C. [9] was 32 ppm and the M.I.C. [10] was 64 ppm. For the same molecule, the M.I.C. [11] was 32 ppm, the M.I.C. (Escherichia coli 0157H7) was 20 ppm and the M.I.C. [12] was 32 ppm. The M.I.C. [13] was 32 ppm, the M.I.C. [14] was 2 ppm and the M.I.C. [15] was 32 ppm. The M.I.C. [16] was 32 ppm and the M.I.C. [17] was 16 ppm.
